# Measurements published in patent US7429579B2, “Tetrahydrobenzazepine derivatives useful as modulators of dopamine D3 receptors (antipsychotic agents)” (SmithKline Beecham, PLC, priority 2000, dated 2008).
# Where a name gives a salt, the structure may show the parent alone.
# Biological target: T1, dopamine D3 receptor (Homo sapiens, UniProt P35462)
# T1 construct: expressed in transfected cells; host or cells: CHO cells (crude cell membranes)
# Experiment: Binding experiments on cloned dopamine receptors: displacement of [125I]-Iodosulpride
# Settings: cloned human D3 receptor expressed in CHO cells, [125I]-Iodosulpride displacement; pKi accurate to about ±0.2-0.3
# Description: Binding Experiments on Cloned Dopamine (e.g. D2, D3 and D4) Receptors
# Cultures were grown as monolayers or in suspension in standard cell culture media. Cells were recovered by scraping (from monolayers) or by centrifugation (from suspension cultures), and were washed two or three times by suspension in phosphate buffered saline followed by collection by centrifugation. Cell pellets were stored frozen at −80° C. Crude cell membranes were prepared by homogenisation followed by high-speed centrifugation, and characterisation of cloned receptors achieved by radioligand binding.
# Preparation of Cho Cell Membranes: Cell Pellets were Gently Thawed at Room temperature, and resuspended in about 20 volumes of ice-cold Extraction buffer; 5 mM EDTA, 50 mM Trizma pre-set crystals (pH7.4@37° C.), 1 mM MgCl2, 5 mM KCl and 120 mM NaCl. The suspension was homogenised using an Ultra-Turrax at full speed for 15 seconds. The homogenate was centrifuged at 18,000 r.p.m for 15 min at 4° C. in a Sorvall RC5C centrifuge. Supernatant was discarded, and homogenate re-suspended in extraction buffer then centrifugation was repeated. The final pellet was resuspended in 50 mM Trizma pre-set crystals (pH 7.4 @ 37° C.) and stored in 1 ml aliquot tubes at −80° C. (D2=3.0E+08 cells, D3=7.0E+07 cells and D4=1.0E+08 cells).
# The total volume is 0.2 ml and incubated in a water bath at 37° C. for 40 minutes. Following incubation, samples were filtered onto GF/B Unifilters using a Can berra Packard Filtermate, and washed four times with ice-cold 50 mM Trizma pre-set crystals (pH 7.4 @ 37° C.). The radioactivity on the filters was measured using a Canberra Packard Topcount Scintillation counter. […] For competition curves, 10 serial log concentrations of competing cold drug were used (Dilution range: 10 μM-10 pM). Competition curves were analysed using Inflexion, an iterative curve fitting programme in Excel. Results were expressed as pKi values where pKi=−log 10 [Ki].
# T1 sequence (P35462 whole entry): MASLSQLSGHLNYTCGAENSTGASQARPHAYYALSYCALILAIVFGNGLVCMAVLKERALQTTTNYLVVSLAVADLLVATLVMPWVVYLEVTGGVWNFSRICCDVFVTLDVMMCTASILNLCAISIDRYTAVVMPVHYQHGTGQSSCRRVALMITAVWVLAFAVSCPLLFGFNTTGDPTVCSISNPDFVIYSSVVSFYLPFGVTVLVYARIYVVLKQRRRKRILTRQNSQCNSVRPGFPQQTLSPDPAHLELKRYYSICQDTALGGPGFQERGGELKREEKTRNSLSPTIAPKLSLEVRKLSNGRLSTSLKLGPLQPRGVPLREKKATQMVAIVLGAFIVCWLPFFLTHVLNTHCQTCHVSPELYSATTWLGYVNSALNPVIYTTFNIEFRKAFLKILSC
row,Compound,Ki [nM]
1,"Cc1cc(-c2ccc3c(c2)CCN(CCCSc2nnc(-c4ccc(F)cc4F)n2C)CC3)no1 [Example 131, 3-(3-{[5-(2,4-difluorophenyl)-4-methyl-4H-1,2,4-triazol-3-yl]thio}propyl)-7-(5-methyl-3-isoxazolyl)-2,3,4,5-tetrahydro-1H-3-benzazepine]",0.316 to 10
2,"Cn1c(SCCCN2CCc3ccc(OS(C)(=O)=O)cc3CC2)nnc1-c1ccc2ncccc2c1 [Example 13, 3-(3-{[4-methyl-5-(6-quinolinyl)-4H-1,2,4-triazol-3-yl]thio}propyl)-2,3,4,5-tetrahydro-1H-3-benzazepin-7-yl methanesulfonate]",0.316 to 10
3,"Cc1cnc(-c2ccc3c(c2)CCN(CCCSc2nnc(-c4ccc5ncccc5c4)n2C)CC3)o1 [Example 61, 7-(5-methyl-1,3-oxazol-2-yl)-3-(3-{[4-methyl-5-(6-quinolinyl)-4H-1,2,4-triazol-3-yl]thio}propyl)-2,3,4,5-tetrahydro-1H-3-benzazepine]",0.316 to 10
4,"Cc1ccc2cc(-c3nnc(CCCCN4CCc5ccc(-c6cc(C)on6)cc5CC4)n3C)ccc2n1 [Example 173, 7-(5-Methyl-3-isoxazolyl)-3-{4-[4-methyl-5-(2-methyl-6-quinolinyl)-4H-1,2,4-triazol-3-yl]butyl}-2,3,4,5-tetrahydro-1H-3-benzazepine hydrochloride]",0.316 to 10
5,"Cn1c(SCCCN2CCc3ccc(OS(C)(=O)=O)cc3CC2)nnc1-c1ccc(F)cc1 [Example 14, 3-(3-{[5-(4-fluorophenyl)-4-methyl-4H-1,2,4-triazol-3-yl]thio}propyl)-2,3,4,5-tetrahydro-1H-3-benzazepin-7-yl methanesulfonate]",0.316 to 10
6,"CCS(=O)(=O)c1ccc2c(c1)CCN(CCCSc1nnc(-c3cc4ccccc4s3)n1C)CC2 [Example 91, 3-(3-{[5-(1-benzothien-2-yl)-4-methyl-4H-1,2,4-triazol-3-yl]thio}propyl)-7-(ethylsulfonyl)-2,3,4,5-tetrahydro-1H-3-benzazepine]",0.316 to 10
7,"CS(=O)(=O)c1ccc2c(c1)CCN(CCCSc1nc(-c3ccccc3)c(-c3ccccc3)[nH]1)CC2 [Example 5, 3-{3-[(4,5-diphenyl-1H-imidazol-2-yl)thio]propyl}-7-(methylsulfonyl)-2,3,4,5-tetrahydro-1H-3-benzazepine]",0.316 to 10
8,"Cc1cc(-c2ccc3c(c2)CCN(CCCSc2nnc(-c4ccc5ncccc5c4)n2C)CC3)on1 [Example 126, 7-(3-methyl-5-isoxazolyl)-3-(3-{[4-methyl-5-(6-quinolinyl)-4H-1,2,4-triazol-3-yl]thio}propyl)-2,3,4,5-tetrahydro-1H-3-benzazepine]",0.316 to 10
9,"CCS(=O)(=O)c1ccc2c(c1)CCN(CCCSc1nnc(-c3cc4ccccc4o3)n1C)CC2 [Example 95, 3-(3-{[5-(1-benzofuran-2-yl)-4-methyl-4H-1,2,4-triazol-3-yl]thio}propyl)-7-(ethylsulfonyl)-2,3,4,5-tetrahydro-1H-3-benzazepine]",0.316 to 10
10,"Cc1cc(-c2ccc3c(c2)CCN(CCCSc2nnc(-c4ccc5cnccc5n4)n2C)CC3)no1 [Example 146, 7-(5-methyl-3-isoxazolyl)-3-(3-{[4-methyl-5-(1,6-naphthyridin-2-yl)-4H-1,2,4-triazol-3-yl]thio}propyl)-2,3,4,5-tetrahydro-1H-3-benzazepine]",0.316 to 10

# Results, then the molecule that gave them:
row,Ki [nM],Compound
1,0.316 to 10,"Cn1c(SCCCN2CCc3ccc(OS(C)(=O)=O)cc3CC2)nnc1-c1cccs1 [Example 8, 3-(3-{[4-methyl-5-(2-thienyl)-4H-1,2,4-triazol-3-yl]thio}propyl)-2,3,4,5-tetrahydro-1H-3-benzazepin-7-yl methanesulfonate]"
2,0.316 to 10,"Cc1ccc2c(-c3nnc(SCCCN4CCc5ccc(-c6cc(C)on6)cc5CC4)n3C)ccc(F)c2n1 [Example 137, 3-(3-{[5-(8-fluoro-2-methyl-5-quinolinyl)-4-methyl-4H-1,2,4-triazol-3-yl]thio}propyl)-7-(5-methyl-3-isoxazolyl)-2,3,4,5-tetrahydro-1H-3-benzazepine]"
3,0.316 to 10,"CCS(=O)(=O)c1ccc2c(c1)CCN(CCCSc1nnc(-c3cccc4occc34)n1C)CC2 [Example 96, 3-(3-{[5-(1-benzofuran-4-yl)-4-methyl-4H-1,2,4-triazol-3-yl]thio}propyl)-7-(ethylsulfonyl)-2,3,4,5-tetrahydro-1H-3-benzazepine]"
4,0.316 to 10,"CCn1c(SCCCN2CCc3ccc(-c4ncc(C)o4)cc3CC2)nnc1-c1ccc2ncccc2c1 [Example 169, 3-(3-{[4-ethyl-5-(6-quinolinyl)-4H-1,2,4-triazol-3-yl]thio}propyl)-7-(5-methyl-1,3-oxazol-2-yl)-2,3,4,5-tetrahydro-1H-3-benzazepine]"
5,0.316 to 10,"Cn1c(SCCCN2CCc3ccc(S(C)(=O)=O)cc3CC2)nnc1-c1ccc2c(ccn2C)c1 [Example 74, 3-(3-{[4-methyl-5-(1-methyl-1H-indol-5-yl)-4H-1,2,4-triazol-3-yl]thio}propyl)-7-(methylsulfonyl)-2,3,4,5-tetrahydro-1H-3-benzazepine]"
6,0.316 to 10,"Cc1ccc2cc(-c3nnc(SCCCN4CCc5ccc(-c6ncc(C)o6)cc5CC4)n3C)ccc2n1 [Example 168, 3-(3-{[4-methyl-5-(2-methyl-6-quinolinyl)-4H-1,2,4-triazol-3-yl]thio}propyl)-7-(5-methyl-1,3-oxazol-2-yl)-2,3,4,5-tetrahydro-1H-3-benzazepine]"
7,0.316 to 10,"Cn1c(SCCCN2CCc3ccc(OS(C)(=O)=O)cc3CC2)nnc1-c1ccccc1 [Example 1, 3-{3-[(4-methyl-5-phenyl-4H-1,2,4-triazol-3-yl)thio]propyl}-2,3,4,5-tetrahydro-1H-3-benzazepin-7-yl methanesulfonate]"
8,0.316 to 10,"CCS(=O)(=O)c1ccc2c(c1)CCN(CCCSc1nnc(-c3cc4ccccc4[nH]3)n1C)CC2 [Example 93, 7-(ethylsulfonyl)-3-(3-{[5-(1H-indol-2-yl)-4-methyl-4H-1,2,4-triazol-3-yl]thio}propyl)-2,3,4,5-tetrahydro-1H-3-benzazepine]"
9,0.316 to 10,"Cn1c(SCCCN2CCc3ccc(S(C)(=O)=O)cc3CC2)nnc1-c1cc2ccccc2[nH]1 [Example 72, 3-(3-{[5-(1H-indol-2-yl)-4-methyl-4H-1,2,4-triazol-3-yl]thio}propyl)-7-(methylsulfonyl)-2,3,4,5-tetrahydro-1H-3-benzazepine]"
10,0.316 to 10,"CCS(=O)(=O)c1ccc2c(c1)CCN(CCCSc1nnc(-c3cc4ccccc4n3C)n1C)CC2 [Example 99, 7-(ethylsulfonyl)-3-(3-{[4-methyl-5-(1-methyl-1H-indol-2-yl)-4H-1,2,4-triazol-3-yl]thio}propyl)-2,3,4,5-tetrahydro-1H-3-benzazepine]"
11,0.316 to 10,"Cn1c(SCCCN2CCc3ccc(S(=O)(=O)N4CCOCC4)cc3CC2)nnc1-c1ccc(F)cc1F [Example 70, 3-(3-{[5-(2,4-difluorophenyl)-4-methyl-4H-1,2,4-triazol-3-yl]thio}propyl)-7-(4-morpholinylsulfonyl)-2,3,4,5-tetrahydro-1H-3-benzazepine]"
12,0.316 to 10,"Cc1cc(-c2ccc3c(c2)CCN(CCCSc2nnc(-c4ccc5ncccc5c4)n2C)CC3)no1 [Example 63, 7-(5-methyl-3-isoxazolyl)-3-(3-{[4-methyl-5-(6-quinolinyl)-4H-1,2,4-triazol-3-yl]thio}propyl)-2,3,4,5-tetrahydro-1H-3-benzazepine]"
